Measured values taken from patent publication US10655153B2, “Chemoenzymatic synthesis of peptide beta-lactones and beta-hydroxy acids” (Washington University, priority 2017, dated 2020).
“Also recorded” adds a separate entry of the source.

Key:
[1] = reported; cited from earlier work
[2] = tested on: Streptococcus pneumonia; conditions: reported; cited from earlier work
[3] = previous studies; cited from earlier work
[4] = tested on: 6× passaged E. coli ATCC 25922; assay: Growth curves of 6× passaged E. coli in the presence of RC-Obi; type: cell-based; conditions: 6 overnight cycles in LB broth with 0.25 mM RC-Obi, then varying concentrations in LB broth
Procedure: (§1) E. coli ATCC 25922 was passaged in LB broth through 6 overnight cycles in the presence of 0.25 mM RC-Obi β-lactone with fresh doses of antibiotic added every 18 hours for 6 days straight.

[5] = tested on: E. coli ATCC 25922; assay: Antibiotic susceptibility testing, growth curves by OD600; type: cell-based; conditions: for effect on E. coli growth (OD600): 150 μM, M9 minimal media, compared to buffer control
Procedure: (§2) Bacterial strains (E. coli 29522 and E. coli X580) were grown from frozen glycerol stocks in LB media overnight at 37° C. with shaking. These starter cultures were used to inoculate fresh LB broth or M9 minimal media broth at an OD600 of 0.3. Each well of a 96-well plate was filled with 100 μL of sterile media (LB or M9). A sterile solution of RC-Obi or RO-Obi in LB or M9 media was added to the first well of each row and was serially diluted two-fold down the entire row creating a compound concentration gradient of 0.3-0.0025 mM.
(§3) Each well of the plate was then filled with 100 μL of the OD600 0.3 bacterial cell suspensions to give a final volume of 200 μL per well. The plates were incubated at 37° C. and the OD600 of each well was measured every 30 minutes over 24 hours. The plate was shaken briefly prior to each measurement to ensure an even cell suspension. All growth curves were generated in triplicate.

[6] = tested on: E. coli X580; assay: Growth curves of β-lactam hypersensitive E. coli X580; type: cell-based; conditions: varying concentrations of RC-Obi
Procedure: as §2, §3, §1

[7] = tested on: E. coli ATCC 25922; assay: Fluorescence microscopy of fixed cells stained with DAPI and FM 4-64fx; type: cell-based; conditions: RC-Obi 0.1 mM, RO-Obi 0.5 mM, 2 hours at 37° C.
Procedure: The E. coli cells were also subjected to fluorescence microscopy after treatment with RC-Obi or RO-Obi. E. coli ATCC 29522 cells were grown in LB media for 8 hours at 37° C. then plated on agar media and incubated overnight at 37° C. A single colony was transferred into test tube with fresh LB media and allowed to grow to 0.3 OD600 at 37° C. Cells were diluted by a factor of 10, allowed to grow to OD600 0.3 again. Aliquots of the cell suspension (2 mL each) were treated with RC-Obi (0.1 mM), RO-Obi (0.5 mM), ampicillin (50 μg/mL), or buffer control and incubated for 2 hours at 37° C. Culture aliquots of 250 μL were then used for staining and fluorescence microscopy. Cell membranes and DNA were labeled with the fixable dyes FM 4-64fx and DAPI, respectively, according to the manufacturer's instructions. Cells were fixed with 2.6% paraformaldehyde+0.008% glutaraldehyde as previously described. Fixed cells were imaged on 1% agarose pads with an Olympus BX51 microscope equipped with a CCD OrcaERG camera (Hamamatsu Photonics, Bridgewater, N.J.), an Olympus Plan N 100X/1.25 Oil Ph3 objective, and an X-Cite 120 LED light source (Lumen Dynamics). Nikon elements were used for image capture using the DAPI and rhodamine filter sets from Chroma. Images were processed using NIS—Elements Basic Research Microscope Imaging Software (Nikon Corp.).

SMILES | antibacterial activity [1] | efficacy in murine septicemia model [2] | hydrolysis in aqueous solutions [3] | susceptibility after passaging [4] | effect on E. coli growth (OD600) [5] | time until growth recovered to normal levels ([5]; after treatment with RC-Obi) | effect on E. coli growth (OD600) at various concentrations ([5]; various concentrations of RC-Obi, or buffer control) | sensitivity compared to E. coli ATCC 29522 [6] | cell clumping phenotype [7]
O=C(N[C@@H]1C(=O)O[C@@H]1Cc1ccc([N+](=O)[O-])cc1)c1cccc(O)c1O [RC-Obi, obafluorin] | broad-spectrum antibacterial activity | demonstrated efficacy | hydrolyzes rapidly | still susceptible to the antibiotic | inhibited the growth of E. coli; also recorded: halted E. coli growth | ~10 h | inhibited the growth of E. coli in a dose-dependent manner | enhanced sensitivity and slower growth recovery | induced a cell clumping phenotype; also recorded: severe cell clumping
O=C(NC(C(=O)O)C(O)Cc1ccc([N+](=O)[O-])cc1)c1cccc(O)c1O (centres unmarked) [RO-Obi] |  |  |  |  | minimal effect on E. coli growth |  |  |  | moderate cell clumping
